Measured values published in PubChem BioAssay (NCI).
“And” between values parts separate entries of the source, which are not always exact repeats. Equal values may be shown once.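 These data come from cells grown in 96-well plates and exposed to compound for 48 hours at five concentrations. GI50 = concentration required for 50% inhibition of growth. TGI: concentration producing complete growth inhibition.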 *1 amine or outer side, *2 acyl side, *3 side chain or, on linkers, in order; H or OH if unused. Where a SMILES comes first, the peptide text is derived from it. [ ]: non-standard residue; d: D form. The star is where a group is joined. X31 = CC(=O)N(C)SCC(N[*:1])C(=O)[*:2]; Fmoc = O=C(OCC1c2ccccc2-c2ccccc21)*; For = O=C*

Columns and labels:
Experiment in all cases: NCI tumour cell line growth inhibition, 48 h
[1] = tested on: SNB-19 CNS
[2] = tested on: SK-MEL-5 melanoma
[3] = tested on: BT-549 breast
[4] = tested on: MDA-N
[5] = tested on: CCRF-CEM leukemia
[6] = tested on: SN12C renal
[7] = tested on: HCC-2998 colon
[8] = tested on: MDA-MB-231 breast
[9] = tested on: EKVX NSCLC
[10] = tested on: HL-60(TB) leukemia
[11] = tested on: HT29 colon

Row | SMILES | TGI [1] | TGI [2] | TGI [3] | TGI [4] | TGI [5] | TGI [6] | TGI [7] | TGI [8] | TGI [9] | TGI [10] | TGI [11] | GI50 [3] | GI50 [8] [µM]
1 | CCN1C(=O)CS/C1=N\NC(=O)CSc1nc2ccccc2c(=O)n1CC | > 100 µM | > 100 µM | > 100 µM | > 100 µM | > 100 µM | > 100 µM | > 100 µM | > 100 µM | > 100 µM | > 100 µM | – | – | –
2 | O=[N+]([O-])c1ccc2[nH]c(O)c(N=NC(=S)Nc3ccccc3)c2c1 | 27.6 µM | 13.5 µM | 19.9 µM | 21.7 µM | 20 µM | 25.8 µM | 12.4 µM | 24.8 µM | 9.2 µM | 36.3 µM | 19 µM | – | –
3 | S=C(Nc1cccc(C2(N3CCCCC3)CCCCC2)c1)Nc1cccc(C2(N3CCCCC3)CCCCC2)c1 | > 100 µM | 33.6 µM | > 100 µM | 33.8 µM | 34 µM | > 100 µM | 6.07 µM | 32.5 µM | > 100 µM | 38.2 µM | 66.1 µM | – | –
4 | CC(=O)NC(CO)C(=O)NC(Cc1ccc(O)cc1)C(=O)NCC(N)=O (stereo not drawn) (Ac-Ser-Tyr-Gly-NH2; configuration not given here) | > 100 µM | > 100 µM | > 100 µM | > 100 µM | > 100 µM | > 100 µM | > 100 µM | > 100 µM | > 100 µM | > 100 µM | > 100 µM | – | –
5 | CC(C)OP(=O)(OC(C)C)C(Nc1cccc(C(F)(F)F)c1)c1ccccc1 (configuration not stated) | > 100 µM | 76.5 µM | > 100 µM | > 100 µM | > 100 µM | > 100 µM | > 100 µM | > 100 µM | > 100 µM | > 100 µM | > 100 µM | – | –
6 | C=C(CC)C[C@@H]1C[C@]2(C(=O)OC)c3[nH]c4ccccc4c3CCN2C1=O | > 100 µM | 31.3 µM | 43.7 µM | 35.5 µM | – | 41.3 µM | 34.1 µM | 54.7 µM | 85.5 µM | 82.5 µM | 42 µM | – | –
7 | CC(=O)Oc1cc(S(=O)(=O)Nc2n[nH]c(N)n2)c(S)cc1Cl | > 100 µM | > 100 µM | > 100 µM | > 100 µM | > 100 µM | > 100 µM | > 100 µM | > 100 µM | > 100 µM | > 100 µM | > 100 µM | – | –
8 | CC1(C)CC2(C)ON=C(c3ccccc3)N2c2ccccc2N1 (configuration not stated) | 68.1 µM | 30.7 µM | 36.9 µM | 47.9 µM | > 100 µM | 84 µM | > 100 µM | 28.7 µM | 77 µM | 56.4 µM | 29.9 µM | – | –
9 | CC(=O)N(C)SCC(NC(=O)C(Cc1ccccc1)NC(=O)OCC1c2ccccc2-c2ccccc21)C(=O)NC(Cc1ccccc1)C(=O)NC(Cc1cn(C=O)c2ccccc12)C(=O)NC(CCCCNC(=O)OCC1c2ccccc2-c2ccccc21)C(=O)NC(C(=O)NC(CSN(C)C(C)=O)C(=O)NC(C(N)=O)C(C)O)C(C)O (configuration not stated) (Fmoc-F[X31]FW(For)K(Fmoc)T[X31]T-NH2; configuration not given here) | > 100 µM | > 100 µM | > 100 µM | > 100 µM | > 100 µM | > 100 µM | > 100 µM | 51.4 µM | > 100 µM | > 100 µM | > 100 µM | – | –
10 | Oc1ccccc1-n1nc2ccc3nonc3c2n1 | > 100 µM | > 100 µM | > 100 µM | > 100 µM | > 100 µM | > 100 µM | > 100 µM | > 100 µM | > 100 µM | > 100 µM | > 100 µM | – | –
11 | COC(=O)[C@@H]1[C@H](O)CC[C@H]2[C@@]1(C)CC[C@@H](C)[C@]2(COC(C)=O)CC(=O)c1ccoc1 | > 50 µM | > 50 µM | > 50 µM | > 50 µM | > 50 µM | > 50 µM | – | > 50 µM | > 50 µM | > 50 µM | > 50 µM | – | –
12 | Cc1ccc(N2C(=O)C(=O)N(/N=C3\C(=O)Nc4ccccc43)C2=S)cc1 | > 100 µM | > 100 µM | > 100 µM | > 100 µM | > 100 µM | > 100 µM | > 100 µM | > 100 µM | > 100 µM | 25.4 µM | > 100 µM | – | –
13 | Cc1ccc(-n2cc(-c3ccc(Cl)cc3)c(C#N)c2N)cc1 | 38.1 µM | 29.7 µM | 32.1 µM | 32.5 µM | > 100 µM | 28 µM | 28.4 µM | 28.7 µM | 30.5 µM | 90.7 µM | 27 µM | – | –
14 | Cc1nc(Nc2nc3ccccc3[nH]2)[nH]c(=O)c1CCO | > 100 µM | > 100 µM | > 100 µM | > 100 µM | > 100 µM | > 100 µM | > 100 µM | > 100 µM | > 100 µM | > 100 µM | > 100 µM | – | –
15 | NCCCCCNOCCCN | > 100 µM | > 100 µM | > 100 µM | > 100 µM | > 100 µM | > 100 µM | > 100 µM | > 100 µM | > 100 µM | > 100 µM | > 100 µM | – | –
16 | O=C1c2c(ccc3c2CCCC3)CC1Cc1ccc2c(c1)CCCC2 (configuration not stated) | > 100 µM | > 100 µM | > 100 µM | > 100 µM | 59.7 µM | > 100 µM | > 100 µM | > 100 µM | > 100 µM | 46.9 µM | > 100 µM | – | –
17 | C(=N/NC1=NCCN1)/c1c2ccccc2c(/C=N\NC2=NCCN2)c2ccccc12 | 0.458 µM and 0.922 µM and 2.15 µM | 0.214 µM and 0.896 µM and 0.761 µM | 0.892 µM and 0.347 µM | 0.69 µM and 1.18 µM | 1.92 µM and 1.13 µM and 1.33 µM | 0.545 µM and 1.72 µM and 1.94 µM | 0.439 µM and 0.47 µM and 0.658 µM | 1.66 µM and 12.5 µM | 2.32 µM and 2.94 µM and 1.57 µM | 1.13 µM and 2.33 µM and 0.725 µM | 1.36 µM and 1.41 µM and 2.04 µM | 0.244 µM and 0.096 µM | 0.459
18 | C=CC[C@H]1[C@H](O[Si](C)(C)C(C)(C)C)C=CC(=O)[C@@H]1CC(=O)OCC | 25.7 µM | 22.9 µM | 30.3 µM | 29.1 µM | 29.9 µM | 29.9 µM | 25.5 µM | 27.6 µM | 24.2 µM | 24.8 µM | 21.2 µM | – | –
